Source: patent US20130040331A1, “LABEL-FREE METHODS RELATED TO hERG POTASSIUM ION [sequence]” (CORNING INCORPORATED, priority 2009, published 2013)

Assays:
[1] = biological target: T1, hERG channel (Homo sapiens, UniProt Q12809); assay: Automated patch clamp recording of hERG current using IonWorks, CHO-hERG cells; details: for effect on hERG tail current: 50 μM, tail current at return to −35 mV; for effect on hERG current: final compound concentration 50 μM
Method: CHO—K1 cells stably expressing hERG channel (CHO-hERG) were cultured in T175 flask till about 70% confluent. Cells were washed twice with PBS, then 2.5 ml 0.25% Trypsin/EDTA was mixed with 2.5 ml PBS and added to the T175 flask. Cells were incubated about 2 minutes with the diluted Trypsin/EDTA solution at 37° C., then were continuously incubated about 3 minutes at room temperature. 20 ml fresh medium were added to suspend the cells and transfer to a 50 ml tube. Cells were centrifuged down at 750 rpm for 5 minutes. The extra medium was removed and cells were resuspended in 6 ml External Buffer (137 mM NaCl, 4 mM KCl, 1.8 mM CaCl2, 1 mM MgCl2, 10 mM HEPES, 10 mM glucose, pH 7.4). Then cells were centrifuged again at 450 rpm for another 5 minutes. Finally cells were resuspended in 4 ml the External Buffer, cell number was counted using a hemacytometer. Cell suspension was diluted to 2.5×10^6 cells/ml with the External Buffer. 4 ml of the resuspended cells were added to the cell reservoir in IonWorks. The Internal solution used contains: 40 mM KCl, 100 mM K-Gluconate, 3.2 mM MgCl2, 2 mM CaCl2, 5 mM HEPES, pH 7.25 (adjusted with KOH). 5 mg Amphotericin B from 200 ul DMSO stock was added to 65 ml the Internal solution and mixed well to achieve electrical access to the interior of cells on the patch plate.
Compounds were prepared from 10 mM DMSO stock and diluted in the External Buffer to make 3× compound solution. […] of the 3× compound solution was transferred to a 384 well plate in Row A, B, C and D. PD11857 (Sigma-Aldrich), a reported hERG channel activator was used as activator positive control (final concentration 30 and 50 μM). hERG blocker dofetilide was used as blocker positive control (final concentration 100 nM). The final DMSO concentration in the IonWorks Quattro PatchPlate PPC plate (Cat#9000-0902, Molecular Devices) was 0.5%. Final compound concentration was 50 μM. Each compound was added to four wells of one PPC plate.
hERG currents were recorded on IonWorks Quattro (Molecular Devices). To record hERG current, the cells were clamped at −80 mV initially, then followed by a 5-s depolarization at +40 mV to activate the channels. Tail currents were measured during an ensuing return to −35 mV. Data analysis were done using IonWorks Quttro® System Software version 2.0.4.4. Data from wells with seal resistance less than 50 MΩ or hERG tail currents less than 0.1 nA were filtered out. […] Inhibitor hits were selected if hERG tail currents ratio (post/pre-compound) is less than mean-2SD of the average DMSO control.
To record hERG current, the cells were clamped at −80 mV initially, then followed by a 5-s depolarization at +40 mV to activate the channels (phase a in FIG. 10A). Tail currents were measured during an ensuing return to −35 mV for 2 seconds (phase b in FIG. 10A). Final holding potential at −70 mV (phase c in FIG. 10B).

[2] = biological target: T1, hERG channel; details: oocytes, cited from earlier work
[3] = tested on: HT29 cells; assay: Label-free RWG biosensor (Epic) DMR assay, agonism mode, HT29 cells endogenously expressing hERG; assay type: cell-based, human
Method: (§1) Epic® wavelength interrogation system (Corning Inc., Corning, N.Y.) was used for whole cell sensing. This system consists of a temperature-control unit, an optical detection unit, and an on-board liquid handling unit with robotics. The detection unit is centered on integrated fiber optics, and enables kinetic measures of cellular responses with a time interval of ˜15 sec.
(§2) Cells were plated in 384-well Epic® cell culture treated plate (Corning Cat#5040) 16-20 hours before assay (15000 cells/well for HEK293 and HEK-hERG cells, 30000 cells/well for HT29 cells). For both HEK-hERG and its parental HEK293 cells, each well was coated with 10 μl 5 μg/ml fibronectin. One hour before assay, cells were washed twice on a BioTek ELx405 Select washer with Hank's Balanced Salt Solution (HBSS) containing 20 mM Hepes. Cells were incubated in 40 μl/well HBSS at 28° C. inside the Epic system for one hour. For each assay, a 2-min baseline was initiated, followed by addition of 10 μl compound solutions (5×) and the cell responses were recorded continuously for one hour.
(§3) All studies were carried out at a controlled temperature (28° C.). At least two independent sets of experiments, each with at least three replicates, were performed. […] All dose-dependent responses were analyzed using non-linear regression method with the GraphPad Prism 5.
Three different types of cells: human colon cancerous cell line HT-29, HEK293 and its engineered HEK-hERG cell lines were used. HT-29 is known to endogenously express hERG channels. HEK293 is a native cell line without endogenously expressed hERG channels, while HEK-hERG is an engineered HEK293 cells having stably expressed hERG channels. Mallotoxin, a newly discovered hERG activator, was used to activate hERG channels at or near physiological conditions (i.e., 1×HBSS buffered conditions).

[4] = tested on: mallotoxin DMR signal in HEK-hERG cells; assay type: cell-based, human
Text: A “molecule modulation index” or like terms is an index to display the ability of the molecule to modulate the biosensor output signals of the panels of markers acting on the panel of cells. The modulation index is generated by normalizing a specific biosensor output signal parameter of a response of a cell upon stimulation with a marker in the presence of a molecule against that in the absence of any molecule.
as §1, §2, §3
The DMR modulation index was generated by normalizing the mallotoxin DMR signal in either cell line in the presence of compound […] to its corresponding DMR signal in the absence of the compound, and the percentage of modulation was based on the amplitude of the mallotoxin DMR signal at a specific time (−18 min after stimulation for HEK-hERG cells, and ˜50 min after stimulation for HT29 cells, respectively). Mallotoxin is known to display polypharmacology. It is also known to be a protein kinase C (PKC) inhibitor; and PKC is a downstream signaling component of hERG activation. Thus, it would be difficult or almost impossible to assign the mode(s) of action of mallotoxin to be a hERG activator when either cell line is individually assayed with the label-free biosensor (i.e., Epic® system). […] However, combining the primary DMR profiles of a compound across the three cell lines tested with the modulation index of the compound against the mallotoxin responses in both HT29 and […] cells can correctly identify whether the compound is a hERG activator or not. The results shown in FIG. 1 indicate that indeed mallotoxin is a hERG activator; and the activation of hERG can result in detectable biosensor responses in the two hERG expressing cell lines.

[5] = tested on: HEK293 cells; assay: Label-free RWG biosensor (Epic) DMR assay, agonism mode, native HEK293 cells without hERG; assay type: cell-based, human; details: compound at 16 micromolar
Method: as §1, §2
All studies were carried out at a controlled temperature (28° C.). At least two independent sets of experiments, each with at least three replicates, were performed. […] All dose-dependent responses were analyzed using non-linear regression method with the GraphPad Prism 5. […]

T1 sequence (Q12809 whole entry): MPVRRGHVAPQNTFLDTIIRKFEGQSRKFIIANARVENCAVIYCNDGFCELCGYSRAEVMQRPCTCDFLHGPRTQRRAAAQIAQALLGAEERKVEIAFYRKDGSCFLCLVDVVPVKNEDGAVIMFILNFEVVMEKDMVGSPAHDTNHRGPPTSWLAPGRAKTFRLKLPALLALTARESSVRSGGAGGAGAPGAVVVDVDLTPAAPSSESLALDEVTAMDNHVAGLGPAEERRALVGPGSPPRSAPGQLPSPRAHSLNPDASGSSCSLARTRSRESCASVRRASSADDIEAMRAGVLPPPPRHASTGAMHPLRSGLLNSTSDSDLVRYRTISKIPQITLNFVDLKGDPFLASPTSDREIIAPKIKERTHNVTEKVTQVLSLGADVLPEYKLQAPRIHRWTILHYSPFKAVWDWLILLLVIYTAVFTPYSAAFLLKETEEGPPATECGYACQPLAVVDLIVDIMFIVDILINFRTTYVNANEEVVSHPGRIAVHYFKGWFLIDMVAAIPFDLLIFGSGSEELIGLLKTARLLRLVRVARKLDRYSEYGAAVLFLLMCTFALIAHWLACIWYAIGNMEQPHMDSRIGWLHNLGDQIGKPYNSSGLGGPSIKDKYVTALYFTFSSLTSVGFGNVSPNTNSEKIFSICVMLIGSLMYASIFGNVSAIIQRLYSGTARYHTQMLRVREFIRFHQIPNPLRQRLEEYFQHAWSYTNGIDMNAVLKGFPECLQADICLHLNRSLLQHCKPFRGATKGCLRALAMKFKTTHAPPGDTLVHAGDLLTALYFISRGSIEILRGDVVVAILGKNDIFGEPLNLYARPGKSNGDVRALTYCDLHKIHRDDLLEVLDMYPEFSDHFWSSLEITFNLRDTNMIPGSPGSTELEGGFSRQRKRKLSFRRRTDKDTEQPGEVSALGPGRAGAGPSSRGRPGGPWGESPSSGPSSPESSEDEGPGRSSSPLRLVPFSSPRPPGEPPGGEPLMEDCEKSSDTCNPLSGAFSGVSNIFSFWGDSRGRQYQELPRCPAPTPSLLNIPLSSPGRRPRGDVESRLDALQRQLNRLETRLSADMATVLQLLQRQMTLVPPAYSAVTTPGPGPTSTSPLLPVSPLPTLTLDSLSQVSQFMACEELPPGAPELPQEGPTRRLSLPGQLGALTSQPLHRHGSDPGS

Structure (SMILES)	effect on hERG tail current [1]	effect on hERG current [1]	amplitude of outward currents evoked by depolarizing pulses ([2]; 100 to 500 μM)	activation and deactivation rate of hERG channels [2]	DMR signal in HT29 cells ([3]; compound at 10 μM)	score of modulation index in coordination, HEK-hERG coordinate ([4]; 10% modulation = 1 score unit)	modulation index against mallotoxin in HEK-hERG cells ([4]; compound 10 micromolar, mallotoxin 16 micromolar, amplitude 18 min after stimulation)	DMR signal in HEK293 cells [5]	effect on hERG current ([1]; listed as Mallotoxin)	DMR signal in HT29 cells ([3]; compound at 16 micromolar)	modulation of the mallotoxin DMR signal in HEK-hERG cells ([4]; pretreatment with 16 micromolar compound, then 16 micromolar mallotoxin)
O=C(O)c1ccccc1Nc1cccc(C(F)(F)F)c1 [flufenamic acid]	significantly increased	weak hERG current activator	enhanced the amplitude of outward currents	accelerated the activation rate of hERG channels and decelerated their deactivation	robust DMR signals	1	~+12%	–	–	–	–
CC(=O)c1c(O)c(C)c(O)c(Cc2c(O)c3c(c(C(=O)/C=C/c4ccccc4)c2O)OC(C)(C)C=C3)c1O [mallotoxin]	significantly increases	significantly increases	–	–	–	–	–	net-zero DMR signal	strong hERG current activator	robust DMR signal	completely caused the desensitization
